Assay results reported in patent US20190151308A1 (Otsuka Pharmaceutical Co., Ltd., priority 2002, published 2019).

How the values were obtained:
[1] = Tail suspension test (TST); type: in vivo, mice; details: 3 mg/kg p.o. of each drug; for Immobility time (sec, mean ± SE): 60 min before suspension, 5-15 min period, N = 7-9; for % of shortening for immobility time: versus vehicle
From the text: The tail suspension test (TST) was originally described by Steru et al. […] The antidepressant activity of a test drug can be detected as an index of shortening the immobility time. This test is widely used as to an experimental animal model for predicting the antidepressant activity of a test drug in clinical settings. An automated device for performing the TST was developed by the authors of the TST (1989).^2) We improved this device and developed our own device incorporating an electric balance, an A/D converter, a testing box (30×25×25 cm), and a personal computer. The mouse was suspended from a hook hanging from the ceiling in the testing box by adhesive tape applied 20 mm from the tip of the tail. The duration of immobility was measured by the computer for a period of 15 min following the start of suspension. […] The experiments were carried out in a sound-proof room.

[2] = Augmentation therapy in major depressive disorder patients non-responsive or partially responsive to serotonin reuptake inhibitors; type: in vivo; details: 10 to 30 mg/day for 4 to 8 weeks, added to serotonin reuptake inhibitor therapy
Description: Only patients with such Hamilton scores receive treatment. These patients are interviewed to obtain a complete medical and psychiatric history.
Only patients with such Hamilton scores receive treatment. These patients are interviewed to obtain a complete medical and psychiatric history. Dehydroaripiprazole is first administered at a dose of 10 mg/day and increased to 30 mg/day as needed in the opinion of the monitoring psychiatrist. Dehydroaripiprazole is administered to these patients at a dose of from 10 mg/day to 30 mg/day for a period of at least four weeks, and up to eight weeks for patients who respond well to this treatment during the first four weeks.

SMILES	Immobility time (sec, mean ± SE) [1] [s]	% of shortening for immobility time [1] [%]	symptoms of depression (Hamilton test, CGI, AIMS, SAS, Barnes) [2]
CN(C)CCCC1(c2ccc(F)cc2)OCc2cc(C#N)ccc21 (centres unmarked) [Citalopram, citalopram]	468.7 ± 24.2	6	–
O=C1CCc2ccc(OCCCCN3CCN(c4cccc(Cl)c4Cl)CC3)cc2N1 [Aripiprazole, 7-{4-[4-(2,3-Dichlorophenyl)-1-piperazinyl]-butoxy}-3,4-dihydrocarbostyril]	486.4 ± 12.3	3	improvement in alleviation of symptoms of depression
